Source: patent publication US11712443B2, “17α-monoesters and 17α,21-diesters of cortexolone for use in the treatment of tumors” (COSMO TECHNOLOGIES LTD., priority 2014, dated 2023)
Like-named read-outs stand apart in the source and are kept apart here.

Assays:
MCF7 = experiment: In vitro proliferation / cytotoxic assay on breast cancer cells (cell titer glo); conditions: MCF7
Description: For the cytotoxic assay: cells seeded in 96 well flat bottom culture plates in media containing charcoal stripped serum. After 24 hours test compounds were added to the cells. DMSO was used as the vehicle negative control and RU486 as the positive control. After 72 hours incubation cell were harvested, lysed and viability determined using the cell titer glow assay for viability.

resting PBMC = experiment: IC50 on resting PBMC (quiescent, non-dividing cells); format: cell-based, human
Description: The ratio from IC50 of the compounds on peripheral blood mononuclear cells (PBMC) and the IC50 on cancer cell lines constitute the Therapeutic Index and show what is the safer compound to be tested.
(§2) The IC^50 in PBMC were tested in 2 different activation status:
resting—quiescent, non-dividing cells
(§3) IC50 of the compounds was determined on fresh cells isolated from human blood (PBMC). The compounds toxicity was determined as follow: Therapeutic Index=Safety/Potency=IC50 stimulated PBMC_/IC50 cancer cell

[1] = test system: MiaPaca-2 pancreatic tumor xenograft; experiment: Human pancreatic tumor xenograft in nude mice, subcutaneous treatment; format: in vivo
Description: The test was carried out comparing the anti-tumor activity of cortexolone 17α-benzoate at two different dosages (8.0 mg/kg, corresponding approximately at 230 μM, and 40 mg/kg, corresponding approximately at 1150 μM), versus the vehicle (i.e. 0.4% (v/v) tween 80 and 0.5% (w/v) carboxymethylcellulose in normal saline) and versus the comparator Cyproterone Acetate at two different dosages (7.4 mg/kg and 37 mg/kg).
1×10^6 MiaPaca-2 cells suspended in matrigel were subcutaneously injected into 6 week old athymic nude mice.
The treatment with the tested compounds, with the vehicle and with the comparative compound, was initiated after the tumor volume has reached 50 mm3 after transplantation. All compounds were injected 100 μL/mouse subcutaneously of low dose solution (approximately 230 μM) or 100 μL/mouse of high dose solution (approximately 1150 μM) of cortexolone 17α-benzoate, vehicle and cyproterone acetate, respectively. Compounds and controls were administered subcutaneously daily for 28 days.
Tumors were measured every 4 days with a digital caliper.
The results are plotted in FIG. 1 as average change in tumor volume relative to the start of treatment. Tumor volume was calculated according to the formula 0.5236(r1)^2(r2) where r1<r2.
The test was carried out comparing the anti-tumor activity of cortexolone 17α-valerate-21-propionate (CB-03-10) at two different dosages (approximately 8.6 mg/kg and 43 mg/kg) versus the vehicle (i.e. 0.4% (v/v) tween 80 and 0.5% (w/v) carboxymethylcellulose in normal saline) and versus the comparator Cyproterone Acetate at two different dosages (7.4 mg/kg and 37 mg/kg).
The treatment with the tested compound, with the vehicle and with the comparative compound was initiated after the tumor has reached a volume of 50 mm3 after implantation, injecting subcutaneously 100 μL/mouse of low dose solution (approximately 230 μM) or 100 μL/mouse of high dose solution (approximately 1150 μM) of cortexolone 17α-valerate-21-propionate (CB-03-10), vehicle and cyproterone acetate, respectively. Compounds and controls were administered subcutaneously daily for 28 days.
The results are plotted in FIG. 2 as average change in tumor volume relative to the start of treatment. Tumor volume was calculated according to the formula 0.5236(r1)^2(r2) where r1<r2.
CPA a well-known anti-androgen was used as control. Briefly 1×10^6 MiaPaca2 cells suspended in matrigel were subcutaneously (SC) injected into 6 week old male athymic nude mice. Tumors were measured every 4 days with a digital caliper. Tumor volume was calculated according to the formula: 0.5236(r1)2(r2) where r1<r2. Treatment with CB-03-10 and controls compounds was initiated after the tumor had reached 50 mm3. Compounds diluted in DMSO/2-hydroxypropyl b-cyclodextrin (vehicle) were injected subcutaneously (SC) daily (100 μL/mouse) at the concentration of 40 mg/Kg daily for 28 consecutive days.

BxPC3 = experiment: In vitro proliferation, larger cancer cell line panel
HT29 [2] = experiment: as above; conditions: HT29
MiaPaca2 = experiment: ATP-dependent proliferation/viability assay (Cell Titer Glo), 3 days; conditions: for TI on Resting PBMC: IC50 resting PBMC / IC50 MiaPaca2; for TI on Stimulated PBMC: IC50 stimulated PBMC / IC50 MiaPaca2
HT29 [3] = experiment: MTT colorimetric assay, 72 h; format: cell-based; conditions: for Inhibition (%) on HT29: 72 h, MTT; for Therapeutic Index (TI), Resting PBMC: IC50 resting PBMC / IC50 HT29; for Therapeutic Index (TI), Stimulated PBMC: IC50 stimulated PBMC / IC50 HT29
Description: The experiment was performed to test and define anticancer activity in vitro of Cortexolone 17α-benzoate and cortexolone 17α-valerate-21-propionate on cell lines representatives of epithelial intestinal tumors, namely HT29. The experiment method consisted in: • 1. Monolayer HT-29 cells were plated in: 96-wells plates at the density of 2×10^4 cells/mL. The cells plated were kept at 37° C. in 5% CO2 and left to attach for 24 h. • 2. […] After 72 h of treatment, the MTT colorimetric assay was performed.

Panc1 = experiment: ATP-dependent proliferation/viability assay (Cell Titer Glo), 3 days; conditions: for TI on Resting PBMC: IC50 resting PBMC / IC50 Panc1; for TI on Stimulated PBMC: IC50 stimulated PBMC / IC50 Panc1
stimulated PBMC = experiment: IC50 on stimulated PBMC (actively dividing cells)
Description: as §2
stimulated—actively dividing cells
as §3

LNCaP = experiment: ATP-dependent proliferation/viability assay (Cell Titer Glo), 3 days; conditions: LNCaP
Description: (§1) The experiment was performed to test and to define the antitumor activity in vitro of cortexolone 17α-benzoate on LNCaP (AR+) and PC3 (AR^−), representative of Prostatic cancer cell lines with Androgen Receptor (AR) positive or negative expression, respectively. The experimental method consisted of: • 1. […] After 24 hours, 10 nM DHT (dihydrotestosterone) with or without anti-androgen compounds, or DMSO vehicle (negative control) was added to the cultures. • 3.
as §1, with “define” for “define the”, “17α-valerate-21-propionate (CB-03-10)” for “17α-benzoate”, “AR” for “Androgen Receptor (AR)”

PC3 = experiment: as above; conditions: PC3
Description: as §1
as §1, with “define” for “define the”, “17α-valerate-21-propionate (CB-03-10)” for “17α-benzoate”, “AR” for “Androgen Receptor (AR)”

[4] = Experiment 1, 0 = higher toxicity in PBMC

C[C@]12CCC(=O)C=C1CC[C@@H]1[C@@H]2CC[C@@]2(C)[C@H]1CC[C@]2(OC(=O)c1ccccc1)C(=O)CO [CB-03-06, cortexolone 17α-benzoate]
Therapeutic Index = IC50 resting PBMC/IC50 cancer cell (MCF7; Table IV): 4
Therapeutic Index = IC50 stimulated PBMC/IC50 cancer cell (MCF7; Table VII): 4
IC50 (resting PBMC; Example 7 Experiment 1): 100 µM
IC50 (resting PBMC; Example 7 Experiment 2): 85 µM
pancreatic tumor size increase relative to size when treatment was initiated ([1]; Example 5, high dose 40 mg/kg (approximately 1150 μM, 100 μL/mouse) SC daily 28 days): less than 5 fold
in vivo antitumor activity compared with Cyproterone Acetate ([1]; Examples 5 and 6, FIG. 3, same animal model): antitumor activity higher than Cyproterone Acetate
Therapeutic Index = IC50 resting PBMC/IC50 cancer cell (BxPC3; Table IV): 3
Therapeutic Index = IC50 stimulated PBMC/IC50 cancer cell (BxPC3; Table VII): 3
Therapeutic Index = IC50 resting PBMC/IC50 cancer cell (HT29 [2]; Table IV): 6
Therapeutic Index = IC50 stimulated PBMC/IC50 cancer cell (HT29 [2]; Table VII): 6
IC50 (HT29 [2]; read-out: In vitro proliferation IC50, Table IV): 10 µM
TI on Resting PBMC (MiaPaca2; [4]): 6
TI on Resting PBMC (MiaPaca2; Experiment 2): 4
TI on Stimulated PBMC (MiaPaca2; [4]): 7
TI on Stimulated PBMC (MiaPaca2; Experiment 2): 5
Therapeutic Index = IC50 resting PBMC/IC50 cancer cell (MiaPaca2; MiaPaca2, Table IV): 5
Therapeutic Index = IC50 stimulated PBMC/IC50 cancer cell (MiaPaca2; MiaPaca2, Table VII): 5
Inhibition (%) on HT29 (HT29 [3]; 0.8 micromolar): −1.55%
Inhibition (%) on HT29 (HT29 [3]; 4 micromolar): 20.40%
Inhibition (%) on HT29 (HT29 [3]; 20 micromolar): 53.60%
Inhibition (%) on HT29 (HT29 [3]; 100 micromolar): 92.24%
Inhibition (%) on HT29 (HT29 [3]; 500 micromolar): 92.31%
Therapeutic Index (TI), Resting PBMC (HT29 [3]; Example 9 Experiment 1): 6
Therapeutic Index (TI), Resting PBMC (HT29 [3]; Example 9 Experiment 2): 5
Therapeutic Index (TI), Stimulated PBMC (HT29 [3]; Example 9 Experiment 1): 7
Therapeutic Index (TI), Stimulated PBMC (HT29 [3]; Example 9 Experiment 2): 6
TI on Resting PBMC (Panc1; [4]): 4
TI on Resting PBMC (Panc1; Experiment 2): 3
TI on Stimulated PBMC (Panc1; Experiment 1, 0 = higher toxicity in PBMC than in the cancer cell lines): 5
TI on Stimulated PBMC (Panc1; Experiment 2): 3
Therapeutic Index = IC50 resting PBMC/IC50 cancer cell (Panc1; Panc1, Table IV): 3
Therapeutic Index = IC50 stimulated PBMC/IC50 cancer cell (Panc1; Panc1, Table VII): 3
Therapeutic Index = IC50 resting PBMC/IC50 cancer cell (stimulated PBMC; PBMC Stim, healthy lymphocyte, Table IV): 1
Therapeutic Index = IC50 stimulated PBMC/IC50 cancer cell, AVERAGE (stimulated PBMC; average across the 7 cancer cell lines, Table VII): 5
IC50 (stimulated PBMC; read-out: IC50 on Stimulated PBMC, Example 7 Experiment 1): 113 µM
IC50 (stimulated PBMC; read-out: IC50 on Stimulated PBMC, Example 7 Experiment 2): 97 µM
IC50 (stimulated PBMC; read-out: In vitro proliferation IC50, PBMC STIMULATED, healthy lymphocyte, Table IV): 97 µM
Therapeutic Index = IC50 resting PBMC/IC50 cancer cell (LNCaP; Table IV): 8
Therapeutic Index = IC50 stimulated PBMC/IC50 cancer cell (LNCaP; Table VII): 8
Therapeutic Index = IC50 resting PBMC/IC50 cancer cell (PC3; Table IV): 3
Therapeutic Index = IC50 stimulated PBMC/IC50 cancer cell (PC3; Table VII): 3
